# According to patent US20240300937A1, “Substituted 6-(Pyrimidin-4-yl)Quinoline Compounds as Cyclin Dependent Kinase Inhibitors” (BeiGene, Ltd., priority 2022, published 2024):
# Columns and labels:
# [1] = target: CDK6/Cyclin D3 (Homo sapiens (Human), UniProt Q00534); experiment: CDK6/Cyclin D3 kinase TR-FRET inhibition assay; format: biochemical; settings: 1 mM ATP, Rb (Ser780)-biotin substrate, read-out: CDK6D3 IC50
# Description: (§1) Compounds disclosed herein were tested for inhibition of CDK4/Cyclin D1 or CDK6/Cyclin D3 kinase in an assay based on the time-resolved fluorescence-resonance energy transfer (TR-FRET) methodology. The assay was carried out in 384-well low volume black plates in a reaction mixture containing CDK4/Cyclin D1 or CDK6/Cyclin D3, 1 mM ATP, 0.15 μM Rb (Ser780)-biotin substrate and 0-10 μM compound in buffer containing 50 mM HEPES pH7.0, 0.02% NaN3, 0.01% BSA, 0.1 mM Orthovanadate, 50 mM MgCl2, 1 mM DTT and 0.005% Tween-20. The kinase was incubated with compound for 60 minutes at room temperature and the reaction was initiated by the addition of ATP and Rb (Ser780)-biotin substrate. After reaction at room temperature for 120 minutes, an equal volume of stop/detection solution was added according to the manufacture's instruction (Cisbio Bioassays). The stop/detection solution contained Streptavidin-XL665 and Anti-pRb (Ser780) mAb-Eu Cryptate in Detection buffer (Cisbio Bioassays). Plates were incubated at room temperature for 60 minutes, and the TR-FRET signals (ex337 nm, em665 nm/620 nm) were recorded on a PHERAstar FSX plate reader (BMG Labtech). The inhibition percentage of CDK4/Cyclin D1 or CDK6/Cyclin D3 kinase activity in presence of increasing concentrations of compounds was calculated based on the ratio of fluorescence at 665 nm to that at 620 nm. The IC50 for each compound was derived from fitting the data to the four-parameter logistic equation by Dotmatics.
# [2] = target: CDK4/Cyclin D1 (Homo sapiens (Human), UniProt P11802); experiment: CDK4/Cyclin D1 kinase TR-FRET inhibition assay; format: biochemical; settings: 1 mM ATP, Rb (Ser780)-biotin substrate, read-out: CDK4D1 IC50
# CDK4/Cyclin D1, sequence (P11802 whole entry): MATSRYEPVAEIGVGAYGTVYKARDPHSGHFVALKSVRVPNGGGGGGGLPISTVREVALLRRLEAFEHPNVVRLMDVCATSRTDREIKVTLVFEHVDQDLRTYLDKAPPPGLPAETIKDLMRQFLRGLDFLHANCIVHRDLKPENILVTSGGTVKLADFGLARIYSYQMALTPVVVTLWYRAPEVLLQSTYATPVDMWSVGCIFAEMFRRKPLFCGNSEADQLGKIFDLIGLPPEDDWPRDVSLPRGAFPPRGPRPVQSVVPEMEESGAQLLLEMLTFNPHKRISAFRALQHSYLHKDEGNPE
# CDK4/Cyclin D1, sequence (P24385 whole entry partner): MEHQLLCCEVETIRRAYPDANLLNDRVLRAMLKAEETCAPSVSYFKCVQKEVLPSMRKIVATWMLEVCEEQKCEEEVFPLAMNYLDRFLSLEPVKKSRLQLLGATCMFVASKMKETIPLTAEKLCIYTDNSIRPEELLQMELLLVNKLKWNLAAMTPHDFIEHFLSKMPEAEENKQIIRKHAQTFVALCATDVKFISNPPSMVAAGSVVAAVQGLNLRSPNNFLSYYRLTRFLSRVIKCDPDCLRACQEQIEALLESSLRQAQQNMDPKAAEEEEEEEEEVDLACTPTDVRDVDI
# Description: as §1
# CDK6/Cyclin D3, sequence (Q00534 whole entry): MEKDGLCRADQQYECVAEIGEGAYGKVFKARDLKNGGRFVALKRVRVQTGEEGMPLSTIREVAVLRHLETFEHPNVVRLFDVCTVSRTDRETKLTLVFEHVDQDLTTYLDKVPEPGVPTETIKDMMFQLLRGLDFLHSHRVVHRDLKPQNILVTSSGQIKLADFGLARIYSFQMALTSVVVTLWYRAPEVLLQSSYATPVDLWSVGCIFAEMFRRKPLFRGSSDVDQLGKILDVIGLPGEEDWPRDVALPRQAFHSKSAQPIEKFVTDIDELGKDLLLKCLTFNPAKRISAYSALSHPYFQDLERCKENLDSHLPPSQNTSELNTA
# CDK6/Cyclin D3, sequence (P30281 whole entry partner): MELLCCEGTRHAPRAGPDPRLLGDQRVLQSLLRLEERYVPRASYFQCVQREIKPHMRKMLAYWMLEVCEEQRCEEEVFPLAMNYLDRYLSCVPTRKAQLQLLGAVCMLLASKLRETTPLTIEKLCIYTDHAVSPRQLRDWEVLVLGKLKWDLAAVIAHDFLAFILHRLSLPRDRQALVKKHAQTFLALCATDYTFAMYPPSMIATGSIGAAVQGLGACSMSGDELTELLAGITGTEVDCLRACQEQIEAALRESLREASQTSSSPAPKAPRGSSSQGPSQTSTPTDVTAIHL
IC50 [1],IC50 [2],Compound
67.2 nM,4.2 nM,"CC(C)c1c(CO)cnc2c(F)cc(-c3nc(N[C@@H]4CCOC[C@H]4O)ncc3F)cc12 [Example 51, (3S,4R)-4-((5-fluoro-4-(8-fluoro-3-(hydroxymethyl)-4-isopropylquinolin-6-yl)pyrimidin-2-yl)amino)tetrahydro-2H-pyran-3-ol]"
240 nM,10 nM,"CC(C)c1c(CNC2CC(F)(F)C2)cnc2c(F)cc(-c3nc(N[C@@H]4CCOC[C@H]4O)ncc3F)cc12 [Example 52, (3S,4R)-4-((4-(3-(((3,3-difluorocyclobutyl)amino)methyl)-8-fluoro-4-isopropylquinolin-6-yl)-5-fluoropyrimidin-2-yl)amino)tetrahydro-2H-pyran-3-ol]"
348 nM,12 nM,"CC(C)c1c(CN[C@@H]2CCCOC2)cnc2c(F)cc(-c3nc(N[C@@H]4CCOC[C@H]4O)ncc3F)cc12 [Example 53, (3S,4R)-4-((5-fluoro-4-(8-fluoro-4-isopropyl-3-((((R)-tetrahydro-2H-pyran-3-yl)amino)methyl)quinolin-6-yl)pyrimidin-2-yl)amino)tetrahydro-2H-pyran-3-ol]"
361 nM,19 nM,"CC(C)c1c(CN2C[C@@H](O)[C@H](F)C2)cnc2ccc(-c3nc(N[C@@H]4CCOC[C@H]4O)ncc3F)cc12 [Example 54, (3R,4R)-4-fluoro-1-((6-(5-fluoro-2-(((3S,4R)-3-hydroxytetrahydro-2H-pyran-4-yl)amino)pyrimidin-4-yl)-4-isopropylquinolin-3-yl)methyl)pyrrolidin-3-ol]"
1090 nM,34 nM,"CC(C)c1c([C@H](C)N)cnc2ccc(-c3nc(N[C@@H]4CCOC[C@H]4O)ncc3F)cc12 [Example 55, (3S,4R)-4-((4-(3-((S)-1-aminoethyl)-4-isopropylquinolin-6-yl)-5-fluoropyrimidin-2-yl)amino)tetrahydro-2H-pyran-3-ol]"
214 nM,3.5 nM,"CC(C)c1c([C@@H](C)N)cnc2ccc(-c3nc(N[C@@H]4CCOC[C@H]4O)ncc3F)cc12 [Example 56, (3S,4R)-4-((4-(3-((R)-1-aminoethyl)-4-isopropylquinolin-6-yl)-5-fluoropyrimidin-2-yl)amino)tetrahydro-2H-pyran-3-ol]"
486 nM,18 nM,"CC(C)c1c(CN2CCC[C@H](O)C2)cnc2ccc(-c3nc(N[C@@H]4CCOC[C@H]4O)ncc3F)cc12 [Example 57, (S)-1-((6-(5-fluoro-2-(((3S,4R)-3-hydroxytetrahydro-2H-pyran-4-yl)amino)pyrimidin-4-yl)-4-isopropylquinolin-3-yl)methyl)piperidin-3-ol]"
406 nM,14 nM,"CC(C)c1c(CN2CCOC[C@H]2C)cnc2ccc(-c3nc(N[C@@H]4CCOC[C@H]4O)ncc3F)cc12 [Example 58, (3S,4R)-4-((5-fluoro-4-(4-isopropyl-3-(((R)-3-methylmorpholino)methyl)quinolin-6-yl)pyrimidin-2-yl)amino)tetrahydro-2H-pyran-3-ol]"
3590 nM,46 nM,"CC(C)c1c(CNc2ccccn2)cnc2ccc(-c3nc(N[C@@H]4CCOC[C@H]4O)ncc3F)cc12 [Example 59, (3S,4R)-4-((5-fluoro-4-(4-isopropyl-3-((pyridin-2-ylamino)methyl)quinolin-6-yl)pyrimidin-2-yl)amino)tetrahydro-2H-pyran-3-ol]"
426 nM,8.7 nM,"CC(C)c1c(CN2CCC[C@H](C#N)C2)cnc2ccc(-c3nc(N[C@@H]4CCOC[C@H]4O)ncc3F)cc12 [Example 61, (S)-1-((6-(5-fluoro-2-(((3S,4R)-3-hydroxytetrahydro-2H-pyran-4-yl)amino)pyrimidin-4-yl)-4-isopropylquinolin-3-yl)methyl)piperidine-3-carbonitrile]"
572 nM,11 nM,"CC(C)c1c(CN2CCC[C@@H](C#N)C2)cnc2ccc(-c3nc(N[C@@H]4CCOC[C@H]4O)ncc3F)cc12 [Example 62, (R)-1-((6-(5-fluoro-2-(((3S,4R)-3-hydroxytetrahydro-2H-pyran-4-yl)amino)pyrimidin-4-yl)-4-isopropylquinolin-3-yl)methyl)piperidine-3-carbonitrile]"
42.7 nM,2.5 nM,"CC(C)c1c(C(C)(C)O)cnc2c(F)cc(-c3nc(N[C@@H]4CCOC[C@H]4O)ncc3F)cc12 [Example 67, (3S,4R)-4-((5-fluoro-4-(8-fluoro-3-(2-hydroxypropan-2-yl)-4-isopropylquinolin-6-yl)pyrimidin-2-yl)amino)tetrahydro-2H-pyran-3-ol]"
395 nM,8.7 nM,CC(C)c1c(CN2[C@H](C)COC[C@@H]2C)cnc2ccc(-c3nc(N[C@@H]4CCOC[C@H]4O)ncc3F)cc12 [Example 68]
355 nM,8.3 nM,"CC(C)c1c(CN2[C@H](C)COC[C@H]2C)cnc2ccc(-c3nc(N[C@@H]4CCOC[C@H]4O)ncc3F)cc12 [Example 69, (3S,4R)-4-((4-(3-(((3R,5R)-3,5-dimethylmorpholino)methyl)-4-isopropylquinolin-6-yl)-5-fluoropyrimidin-2-yl)amino)tetrahydro-2H-pyran-3-ol]"
508 nM,31 nM,"CC(C)c1c(C(C)(C)O)cnc2cc(Cl)c(-c3nc(N[C@@H]4CCOC[C@H]4O)ncc3F)cc12 [Example 70, (3S,4R)-4-((4-(7-chloro-3-(2-hydroxypropan-2-yl)4-isopropylquinolin-6-yl)-5-fluoropyrimidin-2-yl)amino)tetrahydro-2H-pyran-3-ol]"
198 nM,10.9 nM,"CC(C)c1c(C(C)(C)O)cnc2cc(F)c(-c3nc(N[C@@H]4CCOC[C@H]4O)ncc3F)cc12 [Example 116, (3S,4R)-4-((5-fluoro-4-(7-fluoro-3-(2-hydroxypropan-2-yl)-4-isopropylquinolin-6-yl)pyrimidin-2-yl)amino)tetrahydro-2H-pyran-3-ol]"
54 nM,2.1 nM,"CC(C)c1c(C(C)(C)O)cnc2c(F)cc(-c3nc(N[C@@H]4CCOC[C@H]4O)ncc3Cl)cc12 [Example 117, (3S,4R)-4-((5-chloro-4-(8-fluoro-3-(2-hydroxypropan-2-yl)-4-isopropylquinolin-6-yl)pyrimidin-2-yl)amino)tetrahydro-2H-pyran-3-ol]"
149 nM,23.5 nM,"Cc1c(-c2nc(N[C@@H]3CCOC[C@H]3O)ncc2F)ccc2ncc(CO)c(C(C)C)c12 [Example 120, (3S,4R)-4-((5-fluoro-4-(3-(hydroxymethyl)-4-isopropyl-5-methylquinolin-6-yl)pyrimidin-2-yl)amino)tetrahydro-2H-pyran-3-ol]"
66.1 nM,1.7 nM,"Cc1c(-c2nc(N[C@@H]3CCOC[C@H]3O)ncc2F)ccc2ncc(CN)c(C(C)C)c12 [Example 145, (3S,4R)-4-((4-(3-(aminomethyl)-4-isopropyl-5-methylquinolin-6-yl)-5-fluoropyrimidin-2-yl)amino)tetrahydro-2H-pyran-3-ol]"
1500 nM,185 nM,"CC(C)c1cc(C(C)(C)O)nc2ccc(-c3nc(N[C@@H]4CCOC[C@H]4O)ncc3F)cc12 [Example 206, (3S,4R)-4-((5-fluoro-4-(2-(2-hydroxypropan-2-yl)-4-isopropylquinolin-6-yl)pyrimidin-2-yl)amino)tetrahydro-2H-pyran-3-ol]"
3020 nM,536 nM,"CC(C)c1nc(C(C)(C)O)nc2ccc(-c3nc(N[C@@H]4CCOC[C@H]4O)ncc3F)cc12 [Example 207, (3S,4R)-4-((5-fluoro-4-(2-(2-hydroxypropan-2-yl)-4-isopropylquinazolin-6-yl)pyrimidin-2-yl)amino)tetrahydro-2H-pyran-3-ol]"
497 nM,146 nM,"CC(C)c1cc(C(C)(C)O)nc2c(F)cc(-c3nc(N[C@@H]4CCOC[C@H]4O)ncc3Cl)cc12 [Example 208, (3S,4R)-4-((5-chloro-4-(8-fluoro-2-(2-hydroxypropan-2-yl)-4-isopropylquinolin-6-yl)pyrimidin-2-yl)amino)tetrahydro-2H-pyran-3-ol]"
4990 nM,1770 nM,"CC(C)c1nc(C(C)(C)O)nc2c(F)cc(-c3nc(N[C@@H]4CCOC[C@H]4O)ncc3Cl)cc12 [Example 209, (3S,4R)-4-((5-chloro-4-(8-fluoro-2-(2-hydroxypropan-2-yl)-4-isopropylquinazolin-6-yl)pyrimidin-2-yl)amino)tetrahydro-2H-pyran-3-ol]"

Compound,IC50 [1],IC50 [2]
"CC(C)c1c(CN2C3CCCC2CC(O)C3)cnc2ccc(-c3nc(N[C@@H]4CCOC[C@H]4O)ncc3F)cc12 (stereo partly drawn) [Example 60, (1R,3R,5S)-9-((6-(5-fluoro-2-(((3S,4R)-3-hydroxytetrahydro-2H-pyran-4-yl)amino)pyrimidin-4-yl)-4-isopropylquinolin-3-yl)methyl)-9-azabicyclo[3.3.1]nonan-3-ol]",585 nM,15 nM
